# Legend:
# Assay type in all cases: cell-based
# [1] = tested on: thoracic aorta rings of a Wistar rat; test: Vascular protective effects with respect to endothelial dysfunction caused by an inhibitor of NOS (ACh relaxation of aortic rings in presence of LNA); settings: LNA 3×10^−7M, difference in maximum ACh relaxation with/without product
# Method: Under standard in vitro conditions, relaxation of aortic rings caused by acetylcholine (ACh), which relaxation is entirely dependent on the presence of endothelium, is the reflection of the production of NO (stimulated by ACh), which by diffusing to smooth muscle cells brings about arterial relaxation (Nature, 1980, 288, 373). The compounds of the invention were tested in respect of two models involving two different mechanisms implicated in the endothelial dysfunction observed in pathology: • the first model consists of causing inhibition of the relaxation due to ACh by blocking the enzymatic activity (endothelial NOS) responsible for the production of NO; • the second model consists of causing oxidative stress in vitro using an enzymatic system that generates O2^− (xanthine oxidase—XO and hypoxanthine—Hypo).
# The thoracic aorta of a Wistar rat (325-375 g), anaesthetised by the intraperitoneal route using pentobarbital sodium (30 mg/kg), is removed and dissected into rings having a length of 3 mm. Each ring is suspended from an isometric tension sensor connected to a recording system and the initial tension applied is 2.5 g. The physiological solution used, which is thermostatically maintained at 37° C. and oxygenated (95% O2+5% CO2), comprises (in mM): NaCl 112.0; KCl 5.0; CaCl2 2.5; KH2PO4 1.0; MgSO4 1.2; NaHCO3 25.0; glucose 11.5; Ca-EDTA 0.016.
# After a 90-minute stabilisation period, the preparations are contracted using phenylephrine (PHE 10^−6M) and relaxed by adding 10^−5M of acetylcholine in order to verify the integrity of the endothelial layer. If that is confirmed, the preparations are rinsed and a concentration of the product under test is added to the medium followed by 3×10^−7M of N^G-nitro-L-arginine (LNA). The preparations are again contracted using phenylephrine and, after 30 minutes, the relaxations due to acetylcholine (ACh-10^−8M to 10^−5M) are assessed in the presence of indomethacin (10^−5M).
# The relaxation values are expressed as a percentage relative to the maximum contraction caused by PHE. […]
# [2] = tested on: aortic rings of New Zealand rabbits; test: Protective vascular effects with respect to endothelial dysfunction caused by a system generating O2^− (XO-Hypo), aortic rings; settings: compound at 3×10^−8M; rabbit aortic rings; XO 3 mU/ml, Hypo 10^−4M
# rat aortic rings = test: Assessment of aortic production of cGMP stimulated by ACh in the presence of LNA (radioimmunoassay); settings: compound at 10^−7M, 30-minute incubation; ACh 10^−5M 1 minute; LNA 3×10^−6M; isobutylmethylxanthine 10^−5M
# Method: By diffusing to the smooth muscle cells, the NO produced by the endothelial cells activates soluble guanylate cyclase, which brings about an increase in cyclic GMP, which is responsible for relaxation.
# The rat aortic rings are prepared as previously. The effects of 30-minute incubation of compounds of the invention at different concentrations are assessed on the production of cGMP stimulated by ACh (10^−5M-1 minute) in the presence of LNA (3×10^−6M). The said experiments are carried out in the presence of isobutylmethylxanthine (10^−5M) in order to avoid degradation of the cGMP by phosphodiesterases. The rings are frozen in liquid nitrogen and maintained at −80° C. until the assay is carried out. The cGMP content is assessed by radioimmunoassay and expressed in relation to the amount of proteins contained in the tissue (assay by the Bradford method).
smiles,measurement,setting,value
"O=C(NCCN1CCC(COc2ccccc2)CC1)N1CCc2ccccc21 [Example 35, N-{2-[4-(Phenoxymethyl)-1-piperidyl]ethyl}-1-indolinecarboxamide]",inhibition of the endothelial dysfunction caused by LNA,[1]; compound at 3×10^−8M,26%
same,inhibition of the endothelial dysfunction caused by LNA,[1]; compound at 10^−7M,29%
same,inhibition of the endothelial dysfunction caused by LNA,[1]; compound at 10^−8M,8%
same,inhibition of the endothelial dysfunction caused by the XO-Hypo combination,[2],17%
same,increase in the production of cGMP stimulated by ACh in the presence of LNA,rat aortic rings,28.1%
